From patent US9513294B2, “Megastokes amino-triazolyl-BODIPY compounds and applications to live neuron staining and human serum albumin FA1 drug site probing” (National University of Singapore, priority 2012, dated 2016)
Values belong to the compound of their own block, whether it stands above or below them.

Legend:
[1] = Quantum yield measurements versus Acridine Yellow in EtOH; assay type: physicochemical; conditions: for φ (quantum yield): excitation 460 nm; for φ (%): quantum yield
In short: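 Emission areas integrated over 510–700 nm were compared with Acridine Yellow in ethanol (Φ=0.47), all excited at 460 nm. The comparative equation was normalized to excitation-wavelength absorbance and solvent refractive index.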

[2] = Absorbance and fluorescence emission spectra (SpectraMax M2); assay type: physicochemical; conditions: for λmax Abs. (nm) / λmax Em. (nm): MKAC compound library; for λmax Abs. (nm) / λmax Absorp. (nm): absorbance maximum; for λmax Em. (nm) / λmax Emission (nm): fluorescence emission maximum; for λmax Absorp. (nm) / λmax Emission (nm): MKCA compound library
In short: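 Spectroscopic data, including quantum yields, were recorded with a SpectraMax M2 instrument and analysed in GraphPrism.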

SMILES: Nc1ccc(C2=C3C=CC(N4CCc5ccccc5C4)=[N+]3[B-](F)(F)n3c2ccc3-n2cc(C3CCCC3)nn2)cc1 [MK66-5]
φ (quantum yield) ([1]; MK library, Table 5): 0.19% | λmax Absorp. ([2]; MK library, Table 5): 481 nm | λmax Emission ([2]; MK library, Table 5): 582 nm

SMILES: CCCCCC(O)c1cn(-c2ccc3n2[B-](F)(F)[N+]2=C(N4CCCCC4)C=CC2=C3c2ccc(NC(C)=O)cc2)nn1 (racemic) [BDCAC-69]
φ (quantum yield) ([1]; BDCAC library, Table 3): 0.8% | λmax Absorp. ([2]; BDCAC library, Table 3): 468 nm | λmax Emission ([2]; BDCAC library, Table 3): 587 nm

SMILES: CC1CN(C2=[N+]3C(=C(c4ccc(N)cc4)c4ccc(-n5cc(C6CC6)nn5)n4[B-]3(F)F)C=C2)CC(C)O1 (stereo not drawn) [MK20-4]
φ (quantum yield) ([1]; MK library, Table 5): 0.50% | λmax Absorp. ([2]; MK library, Table 5): 476 nm | λmax Emission ([2]; MK library, Table 5): 564 nm

SMILES: Nc1ccc(C2=C3C=CC(N4CCCCC4)=[N+]3[B-](F)(F)n3c2ccc3-n2cc(-c3ccc(-c4ccccc4)cc3)nn2)cc1 [BDC-23]
φ (quantum yield) ([1]; BDC library, Table 2): 0.20% | λmax Absorp. ([2]; BDC library, Table 2): 472 nm | λmax Emission ([2]; BDC library, Table 2): 570 nm

SMILES: CCCCc1cn(-c2ccc3n2[B-](F)(F)[N+]2=C(N4CCCCC4)C=CC2=C3c2ccc(N)cc2)nn1 [BDC-42]
φ (quantum yield) ([1]; BDC library, Table 2): 0.19% | λmax Absorp. ([2]; BDC library, Table 2): 473 nm | λmax Emission ([2]; BDC library, Table 2): 584 nm

SMILES: CCCc1cn(-c2ccc3n2[B-](F)(F)[N+]2=C(NCc4ccccc4C)C=CC2=C3c2ccc(N)cc2)nn1 [MK101-48]
φ (quantum yield) ([1]; MK library, Table 5): 2.92% | λmax Absorp. ([2]; MK library, Table 5): 473 nm | λmax Emission ([2]; MK library, Table 5): 562 nm

SMILES: CC1CN(C2=[N+]3C(=C(c4ccc(N)cc4)c4ccc(-n5cc(CO)nn5)n4[B-]3(F)F)C=C2)CC(C)O1 (stereo not drawn) [MK20-70]
φ (quantum yield) ([1]; MK library, Table 5): 0.18% | λmax Absorp. ([2]; MK library, Table 5): 479 nm | λmax Emission ([2]; MK library, Table 5): 584 nm

SMILES: CC(C)(C)c1ccc(-c2cn(-c3ccc4n3[B-](F)(F)[N+]3=C(N5CCCCC5)C=CC3=C4c3ccc(N)cc3)nn2)cc1 [BDC-11]
φ (quantum yield) ([1]; BDC library, Table 2): 0.74% | λmax Absorp. ([2]; BDC library, Table 2): 471 nm | λmax Emission ([2]; BDC library, Table 2): 552 nm

SMILES: CCCC(C)c1cn(-c2ccc3n2[B-](F)(F)[N+]2=C(N(C)Cc4ccccc4)C=CC2=C3c2ccc(N)cc2)nn1 (stereo not drawn) [MK195-3]
φ (quantum yield) ([1]; MK library, Table 5): 0.46% | λmax Absorp. ([2]; MK library, Table 5): 476 nm | λmax Emission ([2]; MK library, Table 5): 564 nm

SMILES: CC(C)Cc1cn(-c2ccc3n2[B-](F)(F)[N+]2=C(N(C)Cc4ccccc4)C=CC2=C3c2ccc(N)cc2)nn1 [MK195-43]
φ (quantum yield) ([1]; MK library, Table 5): 0.41% | λmax Absorp. ([2]; MK library, Table 5): 475 nm | λmax Emission ([2]; MK library, Table 5): 571 nm

SMILES: CCc1ccc(-c2cn(-c3ccc4n3[B-](F)(F)[N+]3=C(N5CCCCC5)C=CC3=C4c3ccc(N)cc3)nn2)cc1 [BDC-46]
φ (quantum yield) ([1]; BDC library, Table 2): 0.10% | λmax Absorp. ([2]; BDC library, Table 2): 473 nm | λmax Emission ([2]; BDC library, Table 2): 585 nm

SMILES: Nc1ccc(C2=C3C=CC(NCc4cc(F)cc(F)c4)=[N+]3[B-](F)(F)n3c2ccc3-n2cc(C3CC3)nn2)cc1 [MK412-4]
φ (quantum yield) ([1]; MK library, Table 5): 0.67% | λmax Absorp. ([2]; MK library, Table 5): 475 nm | λmax Emission ([2]; MK library, Table 5): 562 nm

SMILES: Cc1ccccc1CNC1=[N+]2C(=C(c3ccc(N)cc3)c3ccc(-n4cc(CCc5ccccc5)nn4)n3[B-]2(F)F)C=C1 [MK101-19]
φ (quantum yield) ([1]; MK library, Table 5): 2.03% | λmax Absorp. ([2]; MK library, Table 5): 472 nm | λmax Emission ([2]; MK library, Table 5): 560 nm

SMILES: CCCc1cn(-c2ccc3n2[B-](F)(F)[N+]2=C(N4CCc5ccccc5C4)C=CC2=C3c2ccc(N)cc2)nn1 [MK66-48]
φ (quantum yield) ([1]; MK library, Table 5): 0.12% | λmax Absorp. ([2]; MK library, Table 5): 480 nm | λmax Emission ([2]; MK library, Table 5): 581 nm

More lines, now with the values ahead:

φ (%) ([1]; MKAC compound library): 1.54% | λmax Abs. (nm) [2]: 461 nm | λmax Em. (nm) [2]: 569 nm
SMILES: CC(=O)Nc1ccc(C2=C3C=CC(N4CCCC4)=[N+]3[B-](F)(F)n3c2ccc3-n2cc(CN(C)Cc3ccccc3)nn2)cc1 [MKAC215-18]

φ (%) ([1]; MKAC compound library): 2.35% | λmax Abs. (nm) [2]: 462 nm | λmax Em. (nm) [2]: 576 nm
SMILES: CC(=O)Nc1ccc(C2=C3C=CC(N4CCCC4)=[N+]3[B-](F)(F)n3c2ccc3-n2cc(C3CC3)nn2)cc1 [MKAC215-4]

φ (%) ([1]; MKCA compound library): 2.58% | λmax Absorp. (nm) [2]: 465 nm | λmax Emission (nm) [2]: 581 nm
SMILES: CN(Cc1ccccc1)C1=[N+]2C(=C(c3ccc(NC(=O)CCl)cc3)c3ccc(-n4cc(CO)nn4)n3[B-]2(F)F)C=C1 [MKCA195-70]

φ (%) ([1]; MKCA compound library): 2.62% | λmax Absorp. (nm) [2]: 461 nm | λmax Emission (nm) [2]: 577 nm
SMILES: CN(Cc1ccccc1)Cc1cn(-c2ccc3n2[B-](F)(F)[N+]2=C(N4CCCC4)C=CC2=C3c2ccc(NC(=O)CCl)cc2)nn1 [MKCA215-18]

φ (%) ([1]; MKAC compound library): 1.88% | λmax Abs. (nm) [2]: 469 nm | λmax Em. (nm) [2]: 579 nm
SMILES: CCCCCC(O)c1cn(-c2ccc3n2[B-](F)(F)[N+]2=C(N4CCc5ccccc5C4)C=CC2=C3c2ccc(NC(C)=O)cc2)nn1 (stereo not drawn) [MKAC66-69]

φ (%) ([1]; MKCA compound library): 4.97% | λmax Absorp. (nm) [2]: 465 nm | λmax Emission (nm) [2]: 575 nm
SMILES: CC(C)Cc1cn(-c2ccc3n2[B-](F)(F)[N+]2=C(N(C)Cc4ccccc4)C=CC2=C3c2ccc(NC(=O)CCl)cc2)nn1 [MKCA195-43]

φ (%) ([1]; MKCA compound library): 41.21% | λmax Absorp. (nm) [2]: 468 nm | λmax Emission (nm) [2]: 563 nm
SMILES: O=C(CCl)Nc1ccc(C2=C3C=CC(NCc4cc(F)cc(F)c4)=[N+]3[B-](F)(F)n3c2ccc3-n2cc(C3CCCC3)nn2)cc1 [MKCA412-5]
